From patent US20050129687A1, “Use of inhibitors of PACAP receptor activity for treatment of overactive bladder and pelvic floor pain syndrome” (University of Vermont and State Agricultural College, priority 2003, published 2005)
Where no end group is shown, it is not given here.

Experiments:
[1] = system: rat with chronic CYP-induced cystitis; assay: Conscious cystometry in rats with chronic CYP-induced cystitis; assay type: in vivo
Method: (§1) Chemical cystitis was induced in adult female Wistar rats by cyclophosphamide (CYP), which is metabolized to acrolein, an irritant eliminated in the urine. CYP (Sigma ImmunoChemicals, St. Louis, Mo.) was administered in one of the following ways: (1) 4 hr (150 mg/kg; i.p.) prior to euthanasia of the animals to elicit acute inflammation (n=6); (2) 48 hr (150 mg/kg; i.p.) prior to euthanasia to examine an intermediate inflammation (n=6) or (3) administered every third day for 10 days to elicit chronic inflammation (n=8; 75 mg/kg; i.p). All injections of CYP were performed under isoflurane (2%) anesthesia.
(§2) Rats were anesthetized with isoflurane anesthesia (2-3%) and the atlanto-occiptal membrane was exposed by aseptic surgical technique. Polyethylene tubing (PE-10, Clay Adams, Parsippany, N.J.) was inserted under the membrane and passed to the lumbosacral spinal cord (L6-S1). Correct catheter placement was confirmed at time of euthanasia. The intrathecal catheter was secured in place with a small drop of dental cement and the incision was closed in two layers. The intravesical catheter was then inserted.
(§3) A lower midline abdominal incision was performed under general anesthesia (ketamine 60 mg/kg, xylazine 10 mg/kg, i.p.), and polyethylene tubing (PE-50) with the end flared by heat was inserted into the dome of the bladder and secured in place with a 6-0 nylon purse string suture. The distal end of the tubing was sealed, tunneled subcutaneously and externalized at the back of the neck, out of the animal's reach. Abdominal and neck incisions were closed with 4-0 nylon sutures. Animals were maintained for 72 hours after survival surgery to ensure complete recovery.
(§4) Control rats and rats treated with CYP (acute; 4 hr or intermediate; 48 hr) or SCI rats and also treated with a specific PACAP antagonist, PACAP6-38 or vehicle (0.9% saline), were evaluated with cystometry. For conscious cystometry, a rat was placed unrestrained in a cage. Prior to the start of the recording, the bladder was emptied and the catheter was connected via a T-tube to a pressure transducer (Grass® Model PT300, West Warwick, R.I.) and microinjection pump (Harvard Apparatus 22, South Natick, Mass.). We infused a 0.9% saline solution at room temperature into the bladder at a rate of 10 ml/hour. Intravesical pressure was recorded continuously using a Neurodata Acquisition System (Grass® Model 15, Astro-Med, Inc, West Warwick, R.I.). At least four reproducible micturition cycles were recorded after the initial stabilization period of 25-30 minutes. The following cystometric parameters were recorded in each animal: filling pressure (pressure at the beginning of the bladder filling), threshold pressure (bladder pressure immediately prior to micturition), micturition pressure (the maximal bladder pressure during micturition), micturition interval (time between micturition events), void volume and presence or absence of non-voiding bladder contractions (NVC). For the present study, NVCs were defined as increases in bladder pressure of at least 7 cm H2O without release of urine.
The effects of a specific PAC1 receptor antagonist, PACAP6-38 (i.t. or intravesical) (Peninsula Pharmaceuticals) or vehicle (0.9% saline, i.t. or intravesical; artificial cerebrospinal fluid, aCSF, i.t.) on lower urinary tract function in rats treated with CYP (4 hr, 48 hr or chronic cystitis) were evaluated. Separate groups of rats were used to evaluate the effects of PACAP6-38 given either through the i.t. catheter or the intravesical catheter. After recording at least three reproducible micturition cycles, PACAP6-38 or saline was administered through the catheters (i.t. or intravesical) and the effects evaluated.
All values are means±S.E.M. Comparisons of urodynamic parameters between control and experimental treatments were made using the Fischer exact test. […]

[2] = system: rat with chronic spinal cord injury (SCI); assay: Conscious cystometry in rats with chronic spinal cord injury (SCI); assay type: in vivo
Method: A complete spinal cord transaction was performed in adult, female rats anesthetized with isoflurane (2-3%). Animals received antibiotic and analgesic treatment following surgery. Animals were evaluated using conscious cystometry six-weeks following surgery when each animal had recovered automatic micturition. The University of Vermont IACUC approved all experimental procedures (protocol #02-108, 03-030, 03-148D) involving animal use. Animal care was under the supervision of the University of Vermont's Office of Animal Care in accordance with the Association for Assessment and Accreditation of Laboratory Animal Care and National Institutes of Health guidelines. All efforts were made to minimize animal stress/distress and suffering and to use the minimum number of animals. Currently, no alternatives exist to the use of whole, live animals in the present study.
as §2, §3, §4
All values are means±S.E.M. Comparisons of urodynamic parameters between control and experimental treatments were made using the […]. When F ratios exceeded the critical value (P≦0.05), the Dunnett's post-hoc test was used to compare the control mean with each experimental mean.

tracheal muscles in cats = conditions: cited from earlier work
[3] = system: rat with acute (4 hr) CYP-induced cystitis; assay: Conscious cystometry in rat with acute (4 hr) CYP-induced cystitis, intravesical delivery; assay type: in vivo; conditions: 200 nmol intravesically
Method: as §1, §3
Control rats and rats treated with CYP (acute; 4 hr or intermediate; 48 hr) or SCI rats and also treated with a specific PACAP antagonist, PACAP6-38 or vehicle (0.9% saline), were evaluated with cystometry. […] Intravesical pressure was recorded continuously using a Neurodata Acquisition System (Grass® Model 15, Astro-Med, Inc, West Warwick, R.I.). At least four reproducible micturition cycles were recorded after the initial stabilization period of 25-30 minutes. The following cystometric parameters were recorded in each animal: filling pressure (pressure at the beginning of the bladder filling), threshold pressure (bladder pressure immediately prior to micturition), micturition pressure (the maximal bladder pressure during micturition), micturition interval (time between micturition events), void volume and presence or absence of non-voiding bladder contractions (NVC). […]

[4] = 1 nmol intrathecally, rat with chronic CYP-induced cystitis (FIG. 1)
[5] = 1 nmol intrathecally, rat with chronic SCI
[6] = 1 nmol, SCI rats compared to SCI rats treated with vehicle (aCSF) (FIG. 7)
[7] = acute (4 hr) CYP-induced cystitis (FIG. 4)

Row | Substance | persistence of drug effects after administration ([1]; 1 nmol intrathecally, rat with chronic CYP-induced cystitis) | appearance of non-voiding bladder contractions [1, 4] | intercontraction interval [1, 4] | intercontraction interval ([1]; rats treated chronically with CYP, 1 or 10 nmol (FIG. 3)) | Non-voiding bladder contractions per cycle (NVC/cycle) ([1]; rats treated chronically with CYP, compared to untreated rats with CYP-induced cystitis (FIG. 2)) | Non-voiding bladder contractions [2, 5] | persistence of drug effects after administration [2, 5] | micturition pressures ([2]; 1 nmol intrathecally, rat with chronic SCI (FIGS. 5 and 6)) | Intermicturition pressure [2, 6] | micturition pressure [2, 6] | threshold pressure [2, 6] | inhibitory-NANC (non-adrenergic, non-cholinergic) relaxation (tracheal muscles in cats) | persistence of drug effects after administration ([3]; acute (4 hr) CYP-induced cystitis) | appearance of non-voiding bladder contractions [3, 7] | intercontraction interval [3, 7] | effect of agonist on the PACAP6-38-induced change in intercontraction interval ([1]; rats treated chronically with CYP, after PACAP6-38 treatment) | effect of intrathecal agonist on the PACAP6-38-induced reduction of pressures ([2]; SCI rats, intrathecal, after PACAP6-38 (FIG. 7))
1 | Phe-Thr-Asp-Ser-Tyr-Ser-Arg-Tyr-Arg-Lys-Gln-Met-Ala-Val-Lys-Lys-Tyr-Leu-Ala-Ala-Val-Leu-Gly-Lys-Arg-Tyr-Lys-Gln-Arg-Val-Lys-Asn-Lys (FTDSYSRYRKQMAVKKYLAAVLGKRYKQRVKNK) [PACAP6-38] | at least 5 hours | reduced | increased | significantly lengthened | significantly reduced | not eliminated by treatment but reduced in pressure | at least 5 hours | reduced | reduced | reduced | reduced | partially but significantly inhibited | at least 2 hours | reduced | increased | – | –
2 | Pituitary adenylate cyclase-activating polypeptide (HSDGIFTDSYSRYRKQMAVKKYLAAVLGKRYKQRVKNK; ends and bridges not checked) [PACAP, polypeptide hormone that stimulates adenylate cyclase in pituitary cells; used as agonist] | – | – | – | – | – | – | – | – | – | – | – | – | – | – | – | reversed | blocked this effect
